Key:
p38 MAP kinase = p38 MAP kinase (Homo sapiens, UniProt Q16539); assay: p-38 MAPK Enzyme assay (in vitro ELISA, ATF-2 substrate); assay type: biochemical; conditions: ELISA detection of phosphorylated ATF-2
Excerpt: The compounds were screened using an in vitro ELISA assay for p38 MAP kinase activity. Activated p38 MAP kinase during the course of its biological function phosphorylates its substrates. The assay was based on the detection of a phosphorylated p38 MAP kinase substrate using ATF-2 as the biological substrate. More the activity of the p38 MAP kinase inhibitor in the reaction mixture less will be the amount of active p38 MAP kinase available to phosphorylate ATF-2. So, lower OD value will indicate the higher inhibition of p38 MAP kinase by the specific p38 MAP kinase inhibitor. The quantitation of phosphorylated ATF-2 at varying concentrations of p38 MAP kinase inhibitor was used to determine the IC50 by fitting the results to a logistic dose-response program (Graphpad Prism, CA). IC50 was defined as the concentration of compound required to achieve 50% inhibition of p38 MAP kinase activity.

TNF α [1] = assay: Ex-vivo human whole blood, LPS-induced TNF-α by ELISA; assay type: cell-based; conditions: LPS 1 ng/ml; for inhibition at 10 µM / inhibition at 100 µM: Homo sapiens
Description: (§1) Blood was collected by venous puncture from 3 different volunteers in separate heparinized (100 IU/ml) tubes and incubated in the presence of 10 μM and 100 μM of test compounds for 1 hr at 37° C. Following this LPS (1 ng/ml final concentration) was added and incubation continued for 5 hr. The reaction was terminated by placing the samples on ice for 10 min. The samples were then centrifuged, plasma separated and stored at −70° C. until the analysis of TNF-α and IL-1β by ELISA: […]

TNF α [2] = assay: In vivo LPS induced TNF α inhibition in Balb/c mice; conditions: 10 mg/kg orally, 30 minutes prior to i.v. LPS (50 μg/kg); blood 60 minutes after LPS
Description: Balb/c mice were kept for acclimatization in the observation room for two days before the experiment. On the day of the experiment, animals were weighed and the test compounds to be administered calculated at a 10 mg/kg body weight basis in a total volume of 2 ml. Control groups received vehicle alone while the treatment groups received the test compound, both given orally, 30 minutes prior to intravenous injection of LPS (50 μg/kg). Blood was collected 60 minutes after the LPS injection from retro orbital plexus, the serum separated & stored in deep freeze till the estimation of TNF by ELISA method.

IL-1 β = assay: Ex-vivo human whole blood, LPS-induced IL-1β by ELISA; assay type: cell-based; conditions: LPS 1 ng/ml; for inhibition at 10 µM / inhibition at 100 µM: Homo sapiens
Description: as §1

Chain of p38 MAP kinase (Q16539 whole entry): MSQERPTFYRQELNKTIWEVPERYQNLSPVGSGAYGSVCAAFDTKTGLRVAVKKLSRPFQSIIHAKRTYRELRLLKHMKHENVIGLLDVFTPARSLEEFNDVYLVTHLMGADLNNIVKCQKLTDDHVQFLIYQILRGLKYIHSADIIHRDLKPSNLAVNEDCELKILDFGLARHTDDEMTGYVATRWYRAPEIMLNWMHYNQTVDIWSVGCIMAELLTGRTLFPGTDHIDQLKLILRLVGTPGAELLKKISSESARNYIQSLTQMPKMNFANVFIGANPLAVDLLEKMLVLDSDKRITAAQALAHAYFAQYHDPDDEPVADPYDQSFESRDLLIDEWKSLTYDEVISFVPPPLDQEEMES

For `CCc1nc(-c2ccc(F)cc2)c(-c2ccnc(N=S(C)(=O)c3ccc(F)cc3)c2)s1` (single isomer, unassigned; (+)) [Example 44, (+)-S-Methyl-S-4-fluoro-phenyl-N-[4-(2-ethyl-4-(4-fluoro-phenyl)-1,3-thiazol-5-yl)-pyridine-2-yl]-sulfoximine], the IC50 (p38 MAP kinase) was 6.6 µM, the “TNF α % inhibition” value (TNF α [1]; Conc 10 μM) was 32.74% and the “TNF α % inhibition” value (TNF α [1]; Conc 100 μM) was 95.59%. For the same compound, the “In vivo LPS induced TNF α inhibition in Balb/c mice TNF α % inhibition (10 mg/kg)” value (TNF α [2]) was 50.4%, the “IL-1 β % inhibition” value (IL-1 β; Conc 10 μM) was 64.82% and the “IL-1 β % inhibition” value (IL-1 β; Conc 100 μM) was 92.36%.

`CCc1nc(-c2ccc(F)cc2)c(-c2ccnc(N=S(=O)(c3ccccc3)C(C)C)c2)s1` (single isomer, unassigned; (-)) [Example 36, (−)-Isopropyl-S-phenyl-N-{4-[2-ethyl-4-(4-fluoro-phenyl)-thiazol-5-yl]-pyridin-2-yl}-sulfoximine] was tested, and the IC50 (p38 MAP kinase) was 13.4 µM, the inhibition at 10 µM (TNF α [1]; Conc 10 μM) was 34.3% and the inhibition at 100 µM (TNF α [1]; Conc 100 μM) was 97.7%. The “In vivo LPS induced TNF α inhibition in Balb/c mice TNF α % inhibition (10 mg/kg)” value (TNF α [2]) was 43.3%, the inhibition at 10 µM (IL-1 β; Conc 10 μM) was 38.9% and the inhibition at 100 µM (IL-1 β; Conc 100 μM) was 96.3%.

`CCc1nc(-c2ccc(F)cc2)c(-c2ccnc(N=S(C)(=O)c3ccc(F)cc3)c2)s1` (single isomer, unassigned; (-)) [Example 43, (−)-S-Methyl-S-4-fluoro-phenyl-N-[4-(2-ethyl-4-(4-fluoro-phenyl)-1,3-thiazol-5-yl)-pyridine-2-yl]-sulfoximine] was tested, and the IC50 (p38 MAP kinase) was 71 µM, the “TNF α % inhibition” value (TNF α [1]; Conc 100 μM) was 55.14% and the inhibition at 10 µM (TNF α [1]; Conc 10 μM) was 17.8%. The “In vivo LPS induced TNF α inhibition in Balb/c mice TNF α % inhibition (10 mg/kg)” value (TNF α [2]) was 49.4%, the “IL-1 β % inhibition” value (IL-1 β; Conc 10 μM) was 24.62% and the inhibition at 100 µM (IL-1 β; Conc 100 μM) was 79.3%.

Work on `CCc1nc(-c2ccccc2)c(-c2ccnc(N=S(C)(=O)c3cccc(C)c3)c2)s1` (stereo not drawn) [Example 24, S-Methyl-S-(3-Methylphenyl)-N-[4-{2-ethyl-4-phenyl-thiazol-5-yl}-pyridine]-sulfoximine] yielded an IC50 (p38 MAP kinase) of 9.8 µM, an inhibition at 10 µM (TNF α [1]; Conc 10 μM) of 7.43% and an inhibition at 100 µM (TNF α [1]; Conc 100 μM) of 69.7%. The “In vivo LPS induced TNF α inhibition in Balb/c mice TNF α % inhibition (10 mg/kg)” value (TNF α [2]) was 39.3%, the inhibition at 10 µM (IL-1 β; Conc 10 μM) was 22.7% and the inhibition at 100 µM (IL-1 β; Conc 100 μM) was 81.2%.

In the case of `CCc1nc(-c2ccccc2)c(-c2ccnc(N=S(C)(=O)c3cccc(F)c3)c2)s1` (stereo not drawn) [Example 25, S-Methyl-S-(3-fluorophenyl)-N-[4-{2-ethyl-4-phenyl-thiazol-5-yl}-pyridine]-sulfoximine], the “TNF α % inhibition” value (TNF α [1]; Conc 10 μM) is reported as 15.39%, the “TNF α % inhibition” value (TNF α [1]; Conc 100 μM) is reported as 64.06% and the “In vivo LPS induced TNF α inhibition in Balb/c mice TNF α % inhibition (10 mg/kg)” value (TNF α [2]) is reported as 59.6%. The “IL-1 β % inhibition” value (IL-1 β; Conc 10 μM) was 38.5% and the “IL-1 β % inhibition” value (IL-1 β; Conc 100 μM) was 79.4%.

`CCc1nc(-c2ccc(F)cc2)c(-c2ccnc(N=S(=O)(c3ccccc3)c3ccccc3)c2)s1` [Example 45, S,S-Diphenyl-N-[4-(2-ethyl-4-(4-fluorophenyl)-thiazol-5-yl)-pyridin-2-yl]-sulfoximine] gave an IC50 (p38 MAP kinase) of 1.35 µM.

With `CCc1nc(-c2ccc(F)cc2)c(-c2ccnc(N=S(C)(=O)c3cccc(C)c3)c2)s1` (stereo not shown) [Example 46, S-Methyl-S-3-methylphenyl-N-[4-(2-ethyl-4-fluorophenyl-thiazol-5-yl)-pyridine]-sulfoximine] the “TNF α % inhibition” value (TNF α [1]; Conc 10 μM) was 40.9%, the “TNF α % inhibition” value (TNF α [1]; Conc 100 μM) was 90.1% and the “In vivo LPS induced TNF α inhibition in Balb/c mice TNF α % inhibition (10 mg/kg)” value (TNF α [2]) was 56.80%. The “IL-1 β % inhibition” value (IL-1 β; Conc 10 μM) was 73.3% and the “IL-1 β % inhibition” value (IL-1 β; Conc 100 μM) was 95.8%.

With `CCc1nc(-c2ccc(F)cc2)c(-c2ccnc(N=S(C)(=O)c3cccc(F)c3)c2)s1` (stereo not shown) [Example 47, S-Methyl-S-3-fluorophenyl-N-[4-{2-ethyl-4-(4-fluorophenyl)-thiazol-5-yl}-pyridine-2-yl]-sulfoximine] the inhibition at 10 µM (TNF α [1]; Conc 10 μM) was 24.4%, the inhibition at 100 µM (TNF α [1]; Conc 100 μM) was 89.6% and the “In vivo LPS induced TNF α inhibition in Balb/c mice TNF α % inhibition (10 mg/kg)” value (TNF α [2]) was 48.60%. For the same compound, the inhibition at 10 µM (IL-1 β; Conc 10 μM) was 78.1% and the inhibition at 100 µM (IL-1 β; Conc 100 μM) was 98.5%.

For `CCc1nc(-c2cccc(F)c2)c(-c2ccnc(N=S(C)(=O)c3ccccc3)c2)s1` (stereo not shown) [Example 50, S-Methyl-S-phenyl-N-[4-(2-ethyl-4-(3-fluoro-phenyl)-1,3-thiazol-5-yl)-pyridine-2-yl]-sulfoximine], the IC50 (p38 MAP kinase) was 4.4 µM.

`CCc1nc(-c2cccc3ccccc23)c(-c2ccnc(N=S(C)(=O)c3ccccc3)c2)s1` (stereo not shown) [Example 53, S-Methyl-S-phenyl-N-{4-[2-ethyl-4-napthalene-1-yl-thiazol-5-yl]-pyridin-2-yl}-sulfoximine] showed an IC50 (p38 MAP kinase) of 1.9 µM.

`CCc1nc(-c2cccc(C(F)(F)F)c2)c(-c2ccnc(N=S(C)(=O)c3ccccc3)c2)s1` (stereo not shown) [Example 54, S-Methyl-S-phenyl-N-{4-[2-ethyl-4-(3-trifluoromethylphenyl)-thiazol-5-yl]-pyridin-2-yl}sulfoximine] was tested, and the IC50 (p38 MAP kinase) was 4.8 µM.

In the case of `Cc1cccc(-c2nc(-c3ccc([S+](C)[O-])cc3)sc2-c2ccnc(N=S(C)(=O)c3ccccc3)c2)c1` (stereo not shown) [Example 57, S-Methyl-S-phenyl-N-{-4-[2-(4-methylsulfinyl-phenyl)-4-m-tolyl-thiazol-5-yl]-pyridin-2-yl}-sulfoximine], the IC50 (p38 MAP kinase) is reported as 6.5 µM.

In the case of `CCc1nc(-c2ccc(F)c(F)c2)c(-c2ccnc(N=S(C)(=O)c3ccccc3)c2)s1` (stereo not shown) [Example 58, S-Methyl-S-phenyl-N-{4-[2-ethyl-4-(3,4-difluorophenyl)-thiazol-5-yl]pyridin-2-yl}-sulfoximine], the IC50 (p38 MAP kinase) is reported as 1 µM.

`CCc1nc(-c2ccc(F)c(F)c2)c(-c2ccnc(N=S(C)(=O)c3ccc(F)cc3)c2)s1` (stereo not drawn) [Example 59, S-Methyl-S-(4-fluorophenyl)-N-{-4-[2-ethyl-4-(3,4-difluorophenyl)-thiazol-5-yl]pyridin-2-yl}-sulfoximine] showed an IC50 (p38 MAP kinase) of 6.6 µM.

`CCc1nc(-c2ccc(F)c(F)c2)c(-c2ccnc(N=S(=O)(c3ccccc3)C(C)C)c2)s1` (stereo not shown) [Example 60, S-Isopropyl-S-phenyl-N-{4-[2-ethyl-4-(3,4-difluorophenyl)-thiazol-5-yl]-pyridin-2-yl}-sulfoximine] showed an IC50 (p38 MAP kinase) of 11.8 µM, an inhibition at 10 µM (TNF α [1]; Conc 10 μM) of 36.7% and an inhibition at 100 µM (TNF α [1]; Conc 100 μM) of 81.7%. The “In vivo LPS induced TNF α inhibition in Balb/c mice TNF α % inhibition (10 mg/kg)” value (TNF α [2]) was 53.65%, the inhibition at 10 µM (IL-1 β; Conc 10 μM) was 35.2% and the inhibition at 100 µM (IL-1 β; Conc 100 μM) was 84.5%.

For `CCc1nc(-c2ccc(C)cc2)c(-c2ccnc(N=S(C)(=O)c3ccccc3)c2)s1` (stereo not shown) [Example 64, S-Methyl-S-phenyl-N-{4-[2-ethyl-4-p-tolyl-thiazol-5-yl]-pyridin-2-yl}-sulfoximine], the IC50 (p38 MAP kinase) was 9.4 µM.

Compound `O=S(=Nc1cc(-c2scnc2-c2cccc(F)c2)ccn1)(c1ccccc1)C1CCCC1` (stereo not shown) [Example 70] has an IC50 (p38 MAP kinase) of 8.2 µM.

`CS(=O)(=Nc1cc(-c2scnc2-c2cccc(F)c2)ccn1)c1ccccc1` (stereo not shown) [Example 71] showed an IC50 (p38 MAP kinase) of 25.5 µM.

In the case of `CC(C)S(=O)(=Nc1cc(-c2scnc2-c2cccc(F)c2)ccn1)c1ccccc1` (stereo not shown) [Example 72], the IC50 (p38 MAP kinase) is reported as 3.9 µM.

`CC(C)S(=O)(=Nc1cc(-c2scnc2-c2ccc(F)cc2)ccn1)c1ccccc1` (stereo not shown) [Example 74] was tested, and the IC50 (p38 MAP kinase) was 7.5 µM.

In the case of `O=S(=Nc1cc(-c2scnc2-c2ccc(F)cc2)ccn1)(c1ccccc1)C1CCCC1` (stereo not shown) [Example 75], the IC50 (p38 MAP kinase) is reported as 12.6 µM.

— patent US20100240709A1, “Sulfoximine Derivatives as p38 MAP Kinase Inhibitors” (priority 2005, published 2010)
